Laboratory results: publication PMC12299903 (Pharmaceuticals, 2025)
In brackets after ≈: the same amount, converted by molar mass. Entries after “also recorded” stand apart in the source; their conditions may differ. Where a SMILES comes first, the peptide text is derived from it. Where no end group is shown, it is not given here.

Tests used:
trypsin [1] = test: trypsin in 20 mM Tris-HCl buffer (pH 8.0); conditions: 37 °C, up to 4 h
trypsin [2] = test: Proteolytic degradation by trypsin (HPLC); format: in vitro ADME; conditions: trypsin 1:50 (w/w), 100 µM peptide, 20 mM Tris-HCl pH 8.0, 37 °C, time points 1 min to 4 h; for time after which progressive degradation (cleavage fragment peaks) is observed with trypsin: HPLC-UV of filtered supernatant; for time to complete degradation by trypsin: HPLC-UV
Experimental: Lunatin–AAAE and EAAA–lunatin and their nanoparticle-functionalized counterparts (NP-Lun-EN and NP-Lun-EC) were suspended in 20 mM Tris-HCl buffer (pH 8.0) at a final peptide concentration of 100 µM and exposed to enzymatic digestion with trypsin at 37 °C, using an enzyme-to-substrate ratio of 1:50 (w/w) in a final volume of 1000 µL. Incubation was performed using an AccuBlock™ Digital Dry Bath (Ciencor),. Aliquots of 200 µL were withdrawn at different time points (1 min, 5 min, 10 min, 30 min, 1 h, 2 h, 3 h, and 4 h), and enzymatic activity was quenched by adding 40 µL of 1 M HCl. Samples were centrifugated and supernatant filtered in whatman® alumina anodisc filter discs 0.02 μm pore size, previously injected in a high-performance liquid chromatography system (Varian® ProStar 315 system equipped with a UV detector), using an Agilent AdvanceBio Peptide Mapping column (4.6 × 150 mm), and 50 µL injection loop.

[3] = Circular dichroism, secondary structure content; format: physicochemical; conditions: 10 mM Tris-HCl, 100 mM NaCl, pH 8.5, 25 µM peptide, 25 °C; for a-helical percentage (CD deconvolution) / β-sheet percentage (CD deconvolution): in buffer, CDpro; for α-helix content (CD deconvolution): in presence of 200 µM POPC:POPG (3:1) LUVs
Experimental: Circular dichroism spectra were recorded using a JASCO J-815 spectrometer (Easton, MD, USA) equipped with a Peltier Jasco model PTC-423 L temperature control system. Spectra were obtained using a quartz cuvette with a 1 cm optical path at a temperature of 25 °C, covering a wavelength range from 190 to 260 nm with eight consecutive scans per sample. The scan speed was set at 100 nm/min and the response time was 4 s. The bandwidth was 1 nm, and ellipticity readings were taken every 0.2 nm. The Lun-1 (25 µM), NP (0.155 mg·mL^−1), NP-Lun-EN (0.17 mg·mL^−1–25 µM of peptide concentration), and NP-Lun-EC (0.18 mg·mL^−1–25 µM of peptide concentration) samples were (corresponding to 25 µM of peptide in NP-Lun-EN and NP-Lun-EC) suspended in 10 mM Tris-HCl buffer solution at pH 8.5 containing 100 mM NaCl or in 200 µM POPC:POPG (3:1, mol:mol) LUVs suspended in the same buffer solution. Data processing and deconvolution calculations to obtain the contents of secondary structures were carried out using the CDpro® program.

[4] = system: Staphylococcus aureus (ATCC29213); test: Antibacterial assay, MIC (broth microdilution, resazurin); format: cell-based; conditions: Mueller-Hinton broth, CLSI M07-A9, 1:2 serial dilution from 128.5 μM, 37 °C 20 h, resazurin read-out, triplicate; conjugates dosed as peptide concentration
Experimental: (§1) The peptide Lun-1 and the peptide-conjugated nanoparticles (Lun-EN and Lun-EC) were investigated against […] bacterial strains—Pseudomonas aeruginosa, Staphylococcus aureus, Acinetobacter, Escherichia coli, and Streptococcus agalactiae, all from American Type Culture Collection (Manassas, VA, USA). Details can be found in the SM. […]
(§2) phase at 35 °C and subsequently transferred to Mueller-Hinton broth according to the guidelines established by the M07 -A9 CLSI. Methods for the dilution antimicrobial susceptibility tests for b acteria that grow aerobically were from the Approved Standard—Ninth Edition. CLSI document M07 -A9. Wayne, PA: Clinical and Laboratory Standards Institute; 2012. Bacterial suspensions were adjusted to the turbidity equivalent to 0.5 McFarland standard ([…]), by spectrophotometric measurement at 625 nm (Bel Photonics S2000 UV, São Paulo, Brazil).
(§3) The suspension was then diluted 1:20, and 50 μL aliquots were distributed into 96-well flat-bottom microplates (Nümbrecht, Germany).
(§4) Chloramphenicol (30 μg·mL⁻¹; 92.8 μM) was used as standard drug and served as positive control for growth bacterial inhibition. Wells containing 50 μL of bacterial inoculum and 50 μL of sterile culture medium were used as negative controls. Free peptides were tested at a maximum concentration of 128.5 μM and diluted via serial dilution (1:2) up to seven times in Mueller–Hinton broth. For the nanoparticle– peptide conjugations concentration s were adjusted according to the degree of functionalization to ensure accurate dosing of the active peptide component.
(§5) Plates were incubated at 37 °C for 20 hours. After incubation, 30 μL of a 0.01% (w/v) resazurin solution (10-oxido -7 -oxophenoxazin-10 -ium -3 -olate; Sigma -Aldrich, St. Louis, MO, USA) was added to each well. Plates were protected from light and incubated for an additional 4 hours to allow colorimetric development. The tests whose bacteria did not develop a pink color after incubation (maintaining the blue coloration) were […]

[5] = system: Pseudomonas aeruginosa (ATCC27853); test: as above; format: cell-based; conditions: Mueller-Hinton broth, CLSI M07-A9, 1:2 serial dilution from 128.5 μM, 37 °C 20 h, resazurin read-out, triplicate; conjugates dosed as peptide concentration
Experimental: as §1, §2, §3, §4, §5

[6] = system: Escherichia coli (ATCC25922); test: as above; format: cell-based; conditions: Mueller-Hinton broth, CLSI M07-A9, 1:2 serial dilution from 128.5 μM, 37 °C 20 h, resazurin read-out, triplicate; conjugates dosed as peptide concentration
Experimental: as §1, §2, §3, §4, §5

[7] = system: Streptococcus agalactiae (ATCC 29313); test: as above; format: cell-based; conditions: Mueller-Hinton broth, CLSI M07-A9, 1:2 serial dilution from 128.5 μM, 37 °C 20 h, resazurin read-out, triplicate; conjugates dosed as peptide concentration
Experimental: as §1, §2, §3, §4, §5

[8] = system: Acinetobacter (ATCC17978); test: as above; format: cell-based; conditions: Mueller-Hinton broth, CLSI M07-A9, 1:2 serial dilution from 128.5 μM, 37 °C 20 h, resazurin read-out, triplicate; conjugates dosed as peptide concentration
Experimental: as §1, §2, §3, §4, §5

[9] = Differential scanning calorimetry of model membranes; conditions: for Tm of LUVs: 3 mM DMPC:DMPG (3:1) LUVs, 10 mM Tris-HCl pH 7.5, pure LUVs 23.1, triplicate, ± 0.2 °C
Experimental: The phase transition profile of 1,2-dimyristoyl-sn-glycero-3-phosphocholine and 1,2-dimyristoyl-sn-glycero-3-phosphocholine/1,2-dimyristoyl-sn-glycero-3-phosphoglycerol (DMPC:DMPG. 3:1, mol:mol) at 3 mM was investigated in the absence and presence of Lun-1, NP, NP-Lun-EN, and NP-Lun-EC at different concentrations (Table S1, using a VP-DSC® microcalorimeter (Malvern® Instruments, Malvern, UK). All mixtures of LUVs and peptide–LUVs were prepared immediately prior to the experiments. The samples were pre-degassed and tested against a 10 mM Tris-HCl buffer (pH 7.5) containing 50 mM NaCl in the reference cell. Buffer-only experiments were also performed in all cells for subsequent background subtraction. Each sample underwent three successive heating scans in the temperature range of 10–35 °C at a heating rate of 1.0 °C.min^−1. Data analyses were performed using Microcal Origin® DSC software version 5.0 (GE HealthCare-Microcal®, Amherst, MA, USA), which was employed to subtract the blank and determine the transition temperature (Tm) and transition enthalpy (DtransH) from the gel phase to the liquid crystalline phase.

Zeta potential = format: physicochemical; conditions: 0.2 mg·mL^−1 in 10 mM Tris-HCl, pH 8.0, 100 mM NaCl; 25 °C; mean of triplicate ± SD
Experimental: Zeta potential and Hydrodynamic Diameter measurements were performed at room temperature (or 25 °C) on a Zetasizer Nano instrument (Malvern® ZS model BI-900, Worcestershire, UK). A 700 µL Malvern® cuvette (model DTS1061) was used for the analysis. The measurements were conducted, utilizing monochromatic light scattering (10 mW Ne laser, λ = 632.4 nm), with the light intensity measured at a 90° angle. Zeta potential (z) were carried out at 0.2 mg·mL^−1 of NP, NP-OH, NP-NH2, NP-Lun-EN, and NP-Lun-EC dispersed in a 10 mM Tris-HCl buffer, pH 8.0, containing 100 mM NaCl.

Staphylococcus aureus = test: Bacterial cell death kinetics (time-kill); format: cell-based; conditions: S. aureus in MH broth, 10^5 CFU·mL^−1, tested at 0.5×, 2×, 4× MIC over 12 h, triplicate
Experimental: Bacterial time-kill assays were performed in triplicate, following the methodology of ref. [43] with minor modifications. Staphylococcus aureus was cultured in Mueller–Hinton (MH) broth at an initial concentration of […] and exposed to free peptides and peptide-functionalized nanobiostructures at concentrations corresponding to 0.5×, 1×, 2×, and 4× the MIC (minimum inhibitory concentration). Samples were collected at defined time intervals: 0, 0.5, 1, 2, 4, 6, 8, 10, and 12 h. Cell viability was assessed using the microdrop method described by Romeiro (2001). Serial dilutions of the bacterial suspensions (10^−1, 10^−2, and 10^−3) were prepared, and 5 µL aliquots from each dilution were plated onto brain–heart infusion (BHI) agar. Plates were incubated for up to 12 h, after which colony counts were performed. The number of colony-forming units (UFC) was calculated by multiplying the colony count by the reciprocal of the dilution factor, and results were expressed as UFC·mL^−1. This approach provided quantitative data on the time–dependent bactericidal activity of both the free peptides and nanoparticle-conjugated formulations.

With FIGGLLKTLTSFFAAAE-NH2 [NP-Lun-EC] the fragment found (trypsin [1]) was “FIGGLLK, 2 h”.

For EAAAFIGGLLKTLTSFF-NH2 [Lun-EN], the fragment found (trypsin [1]) was “TLTSFF, 1 min; also recorded: EAAAFIGGLLK, 1 min”.

In the case of EAAAFIGGLLKTLTSFF-NH2 [NP-Lun-EN], the fragment found (trypsin [1]) is reported as “TLTSFF, 2 h”.

In the case of Lun-1-AAAECterm-NP [NP-Lun-EC], the “time after which progressive degradation (cleavage fragment peaks) is observed with trypsin” value (trypsin [2]) is reported as 2 h, the “a-helical percentage (CD deconvolution)” value [3] is reported as 30% and the “β-sheet percentage (CD deconvolution)” value [3] is reported as 40%. The “α-helix content (CD deconvolution)” value [3] was 55%, the MIC [4] was 16.0 µM and the MIC [5] was 32.1 µM. The MIC [6] was 48.0 µM, the MIC [7] was 16.0 µM and the MIC [8] was 40.0 µM. The “Tm of LUVs” value ([9]; 10 µM peptide) was 22.7 °C, the “Tm of LUVs” value ([9]; 25 µM peptide) was 22.0/22.0 °C and the “Tm of LUVs” value ([9]; 50 µM peptide) was 21.1 °C. For the same compound, the “Tm of LUVs” value ([9]; 100 µM peptide) was 19.8 °C, the “lowering of transition temperature (DTm)” value ([9]; DMPC:DMPG (3:1) LUVs, versus pure LUVs) was 3.3 °C and the ζ-potential (Zeta potential) was “+5.8 ± 0.8 mV”.

In the case of `CC[C@H](C)[C@H](NC(=O)[C@H](Cc1ccccc1)NC(=O)[C@H](C)NC(=O)[C@H](C)NC(=O)[C@H](C)NC(=O)[C@@H](N)CCC(=O)O)C(=O)NCC(=O)NCC(=O)N[C@@H](CC(C)C)C(=O)N[C@@H](CC(C)C)C(=O)N[C@@H](CCCCN)C(=O)N[C@H](C(=O)N[C@@H](CC(C)C)C(=O)N[C@H](C(=O)N[C@@H](CO)C(=O)N[C@@H](Cc1ccccc1)C(=O)N[C@@H](Cc1ccccc1)C(N)=O)[C@@H](C)O)[C@@H](C)O` [Lun-EN] (H-EAAAFIGGLLKTLTSFF-NH2), the “time to complete degradation by trypsin” value (trypsin [2]) is reported as 10 min.

For `CC[C@H](C)[C@H](NC(=O)[C@@H](N)Cc1ccccc1)C(=O)NCC(=O)NCC(=O)N[C@@H](CC(C)C)C(=O)N[C@@H](CC(C)C)C(=O)N[C@@H](CCCCN)C(=O)N[C@H](C(=O)N[C@@H](CC(C)C)C(=O)N[C@H](C(=O)N[C@@H](CO)C(=O)N[C@@H](Cc1ccccc1)C(=O)N[C@@H](Cc1ccccc1)C(=O)N[C@@H](C)C(=O)N[C@@H](C)C(=O)N[C@@H](C)C(=O)N[C@@H](CCC(=O)O)C(N)=O)[C@@H](C)O)[C@@H](C)O` [Lun-EC] (H-FIGGLLKTLTSFFAAAE-NH2), the “time to complete degradation by trypsin” value (trypsin [2]) was 10 min.

For NP-NtermEAAA-Lun-1 [NP-Lun-EN], the “time after which progressive degradation (cleavage fragment peaks) is observed with trypsin” value (trypsin [2]) was 2 h, the “a-helical percentage (CD deconvolution)” value [3] was 35% and the “β-sheet percentage (CD deconvolution)” value [3] was 45%. For the same compound, the “α-helix content (CD deconvolution)” value [3] was 40%, the MIC [4] was 64.2 µM and the MIC [5] was “did not exhibit activity”. For the same compound, the MIC [6] was 128.5 µM, the MIC [7] was 128.5 µM and the MIC [8] was “did not exhibit activity”. For the same compound, the “concentrations giving sustained reduction in viable cells without regrowth” value (Staphylococcus aureus) was 2 × MIC and 4 × MIC, the “Tm of LUVs” value ([9]; 10 µM peptide) was 22.9 °C and the “Tm of LUVs” value ([9]; 25 µM peptide) was 22.9 °C. The “Tm of LUVs” value ([9]; 50 µM peptide) was 22.9 °C, the “Tm of LUVs” value ([9]; 100 µM peptide) was 21.9 °C and the ζ-potential (Zeta potential) was “+6.7 ± 0.9 mV”.

In the case of FIGGLLKTLTSFFAAAE-NH2 [Lun-EC], the fragment found (trypsin [1]) is reported as “FIGGLLK, 1 min; also recorded: TLTSFFAAAE, 1 min”.

Work on `CC[C@H](C)[C@H](NC(=O)[C@@H](N)Cc1ccccc1)C(=O)NCC(=O)NCC(=O)N[C@@H](CC(C)C)C(=O)N[C@@H](CC(C)C)C(=O)N[C@@H](CCCCN)C(=O)N[C@H](C(=O)N[C@@H](CC(C)C)C(=O)N[C@H](C(=O)N[C@@H](CO)C(=O)N[C@@H](Cc1ccccc1)C(=O)N[C@@H](Cc1ccccc1)C(N)=O)[C@@H](C)O)[C@@H](C)O` [Lun-1, lunatin-1] (H-FIGGLLKTLTSFF-NH2) yielded an MIC [4] of 8.0 µM (≈ 11.5 µg/mL), an MIC [5] of 32.1 µM (≈ 46.3 µg/mL) and an MIC [6] of 64.2 µM (≈ 92.6 µg/mL). For the same compound, the MIC [7] was 16.0 µM (≈ 23.1 µg/mL) and the MIC [8] was 32.1 µM (≈ 46.3 µg/mL).
